The subject of the experiment is murine neural precursor cells (neurosphere cultures). In words: HTS of LOPAC library against secondary neurosphere cultures, MTT proliferation assay at 3 μM, day 7 (z score, P value). Type of experiment: cell-based, mouse. On the technique in general: Tetrazolium dyes change colour on reduction, which living cells bring about.
The mark [1] stands for this setting: LOPAC library screen at 3 μM, secondary neurosphere cultures, MTT.
Setting [2] is: LOPAC primary screen, neurosphere MTT proliferation, 3 μM, day 7.
The mark [3] stands for this setting: yes/no: significantly inhibited neurosphere proliferation in primary screen.
Setting [4] is: LOPAC library screen, 3 μM, MTT, neurosphere cultures.
Where [5] appears, read: primary LOPAC screen, 3 μM, MTT, neurosphere proliferation.
Setting [6] is: yes = significantly inhibited neurosphere proliferation (P<0.01) in the primary screen.
The mark [7] stands for this setting: LOPAC library screen, 3 μM, MTT, secondary neurosphere cultures, day 7.
[8] abbreviates: yes/no: significantly inhibited neurosphere proliferation (P<0.01) in primary screen.
The mark [9] stands for this setting: yes/no: significantly inhibited neurosphere proliferation (P<0.01) in the primary screen.
[10] abbreviates: yes/no: significantly inhibited neurosphere proliferation in the primary screen.
[11] abbreviates: LOPAC screen, neurosphere MTT proliferation, 3 μM, day 7.
The mark [12] stands for this setting: LOPAC library screen at 3 μM, MTT, secondary neurosphere cultures, screened in singlets.

The text below walks through data of patent publication US8058243B2, “Method for treating a brain cancer with ifenprodil” (HSC Research and Development Limited Partnership, priority 2006, dated 2011).

Counter-ions that a name gives are not always drawn. Like-named read-outs stand apart in the source and are kept apart here.

Take `COc1ccc(Cc2nccc3cc(OC)c(OC)cc23)cc1OC` [Papaverine hydrochloride]: the “Z Score” value under setting [1] was −0.2992. The molecule further registered a Z score under setting [2] of −0.299. Besides, the Activity result under setting [3] was “no”.

On to `Cn1c(=O)c2[nH]cnc2n(C)c1=O` [Theophylline], for which the Activity entry is reported as “no”. In addition, the “Z Score” value under setting [4] worked out at 0.3699. In addition, the Z score under setting [5] turned out to be 0.370.

Turning to `N=C(N)SCCc1cnc[nH]1` [Imetit dihydrobromide], the “Z Score” value is on record as −0.2452 and the Z score is on record as −0.245.

Regarding `Oc1ccc(C=Cc2cc(O)cc(O)c2)cc1` [Resveratrol], the “Z Score” value under setting [1] was −0.2295. The same molecule showed a Z score under setting [2] of −0.230. Besides, the Activity result under setting [3] is “no”.

On to `CN1C[C@H](O)[C@@H](O)[C@H](O)[C@H]1CO` [N-Methyl-1-deoxynojirimycin], for which the “Z Score” value is listed as −1.335. Under setting [2], this molecule registered a Z score of −1.335. Also, under setting [6], the Activity result is recorded as “no”.

On to `Nc1ccncc1` [4-Aminopyridine], for which the “Z Score” value under setting [7] is −1.516. This molecule also registered a Z score under setting [2] of −1.516. Also, under setting [3], the Activity result is listed as “no”.

For `C1CNCCN1.COc1cc(C(O)CO)ccc1O.COc1cc(C(O)CO)ccc1O` (racemic) [MHPG piperazine], the “Z Score” value under setting [4] worked out at 0.05276. The Z score under setting [2] is on record as 0.053. The Activity entry under setting [8] is recorded as “no”.

Take `CCn1cc(C(=O)O)c(=O)c2cc(F)c(N3CCNC(C)C3)c(F)c21` (centres unmarked) [Lomefloxacin hydrochloride]: the Activity entry is on record as “no”. In addition, the “Z Score” value under setting [4] was 0.1374. This molecule also returned a Z score under setting [2] of 0.137.

On to `CC[N+](CC)(CC)CCOc1cccc(OCC[N+](CC)(CC)CC)c1OCC[N+](CC)(CC)CC` [Gallamine triethiodide], for which the “Z Score” value under setting [1] was −0.9156. Under setting [2], this molecule had a Z score of −0.916. Also, under setting [8], the Activity entry is recorded as “no”.

Turning to `CSc1ccc2c(c1)C(N1CCN(C)CC1)Cc1ccccc1S2` (centres unmarked) [Methiothepin (38), Methiothepin, reference compound], under “168 h, 3 µM”, the “Z Score” value stood at 1.868 and the Z score is on record as 1.868. Also, the Activity result under setting [9] is listed as “no”.

For `COc1ccc(/C=C/C(=O)Nc2ccccc2C(=O)O)cc1OC` [Tranilast], the “Z Score” value under setting [4] was determined as 0.1736. Also, under setting [5], the Z score is recorded as 0.174.

In the case of `Nc1ncnc2c1ncn2[C@@H]1O[C@H](COP(=O)(O)CP(=O)(O)OP(=O)([O-])[O-])[C@H](O)C1O.[Li+].[Li+]` (some centres unmarked), the “Z Score” value under setting [7] is reported as −1.29. Under setting [2], this molecule returned a Z score of −1.290. Also, under setting [6], the Activity entry was “no”.

Consider `CCN(CC)CCOC(=O)c1ccc(N)cc1` [Procaine hydrochloride], for which the “Z Score” value under setting [4] amounted to 0.5501. The Z score under setting [2] was determined as 0.550. Further, under setting [9], the Activity entry was “no”.

`O=C(c1ccc(F)cc1)C1CCN(CCn2c(=O)[nH]c3ccccc3c2=O)CC1` [Ketanserin tartrate]: for the setting “168 h, 3 µM”, the “Z Score” value is reported as −3.325 and the Z score was −3.325. Also, the Activity entry under setting [9] is “yes”.

Turning to `Br.Cc1o[nH]c(=O)c1CC(N)C(=O)O` (racemic) [(±)-AMPA hydrobromide], the Z score under setting [2] was −0.427. For the same molecule, the Activity entry under setting [8] is “no”.

On to `COc1ccc(OC)c(C(O)C(C)N)c1` (centres unmarked) [Methoxamine hydrochloride], for which the “Z Score” value under setting [7] is −3.255. This molecule also displayed a Z score under setting [2] of −3.255. For the same molecule, the Activity result under setting [9] is “yes”.

Regarding `CCCCc1ccc(C(=O)O)nc1` [Fusaric acid], the “Z Score” value was −0.1413. Under setting [2], this molecule showed a Z score of −0.141.

Turning to `N[C@@H](CCCC(=O)O)C(=O)O` [L-2-aminoadipic acid], where the note is “168 h, 3 µM”, the “Z Score” value is given as −2.334 and the Z score is −2.334. The Activity result under setting [9] is listed as “yes”.

`CCCCCCCCCC(=O)NC(CN1CCOCC1)[C@H](O)c1ccccc1.Cl` (mixture of isomers): the Activity entry is given as “no”. This molecule also yielded a Z score under setting [2] of −1.109.

Take `CCCNC(=O)NS(=O)(=O)c1ccc(Cl)cc1` [Chlorpropamide]: the “Z Score” value under setting [1] is listed as −0.1901. Besides, under setting [5], the Z score was −0.190. For the same molecule, the Activity result under setting [10] was “no”.

As for `CN(C)CCC(c1ccc(Cl)cc1)c1ccccn1.O=C(O)/C=C\C(=O)O` (racemic) [(±)-Chlorpheniramine maleate], the Activity entry is “no” and the Z score is recorded as −2.116.

`O=C(c1ccc(OCCN2CCCCC2)cc1)c1c(-c2ccc(O)cc2)sc2cc(O)ccc12` [Raloxifene hydrochloride]: the “Z Score” value under setting [7] is reported as −9.222. Also, the Z score under setting [2] is on record as −9.222. Also, the Activity entry under setting [6] is recorded as “yes”.

With `CN(C)c1cc2c(Nc3ccc4c(cnn4Cc4ccccc4)c3)ncnc2cn1` [GW2974], the “Z Score” value is on record as −0.5164. Moreover, under setting [2], the Z score was −0.516. Also, under setting [8], the Activity entry was “no”.

Turning to `CC(N)C(O)c1ccc(O)c(O)c1` (single isomer, unassigned; (-)) [(−)-alpha-Methylnorepinephrine], the “Z Score” value is 1.193. Moreover, the Z score under setting [11] is listed as 1.193. The Activity result under setting [8] was “no”.

As for `CC(CN1c2ccccc2Sc2ccccc21)N(C)C` (centres unmarked) [Promethazine hydrochloride], the “Z Score” value under setting [4] came out at 0.4746. For the same molecule, under setting [2], the Z score worked out at 0.475. In addition, the Activity entry under setting [9] was “no”.

Turning to `O=C(c1cc(O)c(O)c([N+](=O)[O-])c1)c1ccccc1F` [Ro 41-0960], the “Z Score” value is given as −0.36. Also, the Z score under setting [2] is given as −0.360. Under setting [3], the Activity entry is on record as “no”.

As for `Cc1cccc(C#Cc2ccccc2)n1.Cl` [6-Methyl-2-(phenylethynyl)pyridine hydrochloride], under “168 h, 3 µM”, the “Z Score” value is listed as 0.09366 and the Z score stood at 0.094. For the same molecule, under setting [6], the Activity result is on record as “no”.

Regarding `N=C(NCCC[C@H](N)C(=O)O)N[N+](=O)[O-]` [NG-Nitro-L-arginine], the “Z Score” value under setting [4] is listed as 0.1385. The molecule also yielded a Z score under setting [2] of 0.139. Under setting [6], the Activity result was “no”.

On to `CC[C@@H]1C(=O)OC[C@@H]1Cc1cncn1C.Cl` [(+)-Pilocarpine hydrochloride], for which the “Z Score” value under setting [7] is listed as −1.548. The same molecule displayed a Z score under setting [2] of −1.548. For the same molecule, the Activity entry under setting [6] is given as “no”.

Turning to `Cl.NCC(O)C1CCCCCCC1` (centres unmarked), the Z score under setting [11] is −0.575. The Activity result under setting [8] was “no”.

Consider `O=C1NCN(c2ccccc2)C12CCN(CCCC(c1ccc(F)cc1)c1ccc(F)cc1)CC2` [Fluspirilene], for which the Activity entry is recorded as “no”. Also, the “Z Score” value under setting [12] is 1.589. Under setting [2], this molecule yielded a Z score of 1.589.

Regarding `NC[C@@H]1O[C@H](O[C@H]2[C@@H](O)[C@H](O[C@@H]3[C@@H](O)[C@H](N)C[C@H](N)[C@H]3O[C@H]3O[C@H](CO)[C@@H](O)[C@H](O)[C@H]3N)O[C@@H]2CO)[C@H](N)[C@@H](O)[C@@H]1O` [Paromomycin sulfate], under setting [4], the “Z Score” value came out at 0.821.

For `Cn1c(=O)c2[nH]c(C3CCCC3)nc2n(C)c1=O` [8-Cyclopentyl-1,3-dimethylxanthine], for the setting “168 h, 3 µM”, the “Z Score” value is given as −0.1248 and the Z score was −0.125. The Activity entry under setting [8] is “no”.

Regarding `Nc1ccc(N2C(=O)c3ccccc3C2=O)c(Cl)c1` [L-655,708], the “Z Score” value is −0.6132. Moreover, the Z score under setting [2] is listed as −0.613. Besides, under setting [8], the Activity entry is given as “no”.

On to m-Iodobenzylguanidine hemisulfate, for which the Activity result is “yes”, the “Z Score” value is −2.564 and the Z score is recorded as −2.564.

Consider `Nc1ncnc2c1ncn2[C@@H]1O[C@H](C(=O)NC2CC2)[C@@H](O)[C@H]1O` [5′-(N-Cyclopropyl)carboxamidoadenosine], for which the “Z Score” value is recorded as −1.701. Also, under setting [11], the Z score is recorded as −1.701. Under setting [8], the Activity entry is recorded as “no”.

`NCCS(=O)(=O)O` [Taurine]: under setting [4], the “Z Score” value was 0.5328. Under setting [5], this molecule gave a Z score of 0.533. Further, the Activity entry under setting [10] is recorded as “no”.

Consider `CC(C)NP(=O)(NC(C)C)OP(=O)(NC(C)C)NC(C)C` [Tetraisopropyl pyrophosphoramide], for which the “Z Score” value is −1.114. Moreover, the Z score under setting [5] is given as −1.114. For the same molecule, the Activity result under setting [10] is listed as “no”.

For `C#C[C@]1(O)CC[C@H]2[C@@H]3CCC4=Cc5nc6nc7ccccc7n6cc5C[C@]4(C)[C@H]3CC[C@@]21C` [WIN 62,577], the “Z Score” value is reported as 2.351. For the same molecule, the Z score under setting [5] is listed as 2.351. Moreover, under setting [10], the Activity entry is listed as “no”.

`CC(=O)NCCc1c[nH]c2ccc(O)cc12` [N-Acetyl-5-hydroxytryptamine]: the “Z Score” value under setting [1] is −1.06. The Z score under setting [5] is −1.060. Further, the Activity entry under setting [10] is “no”.

In the case of `CO/N=C(\C(=O)N[C@@H]1C(=O)N2C(C(=O)O)=C(CSc3nc(=O)c(=O)[nH]n3C)CS[C@H]12)c1csc(N)n1` [Ceftriaxone sodium], the Activity entry is on record as “no”. Under setting [12], the “Z Score” value is reported as 2.23. Moreover, the Z score under setting [2] turned out to be 2.230.

For the molecule (−)-Scopolamine methyl nitrate, the Activity result under setting [3] is reported as “no”.

On to `Nc1cc(=O)[nH]c(N)n1` [2,6-Diamino-4-pyrimidinone], for which the “Z Score” value under setting [1] is reported as −1.072. Also, the Z score under setting [11] is reported as −1.072. Also, the Activity result under setting [8] is listed as “no”.

As to `NC(Cc1ccc(Cl)cc1)C(=O)O` (centres unmarked) [(B1)-p-Chlorophenylalanine], the “Z Score” value is given as −0.2471.

`Nc1nc(Cl)nc2c1ncn2[C@@H]1O[C@H](CO)[C@@H](O)[C@H]1O` [2-Chloroadenosine]: for the setting “168 h, 3 µM”, the “Z Score” value is recorded as −0.396 and the Z score is listed as −0.396. The Activity result under setting [8] is “no”.
